Source: patent publication US20200384064A1, “COMPOSITIONS AND METHODS USING HIGH PROTEIN FOR INDUCTION OF AUTOPHAGY” (SOCIETE DES PRODUiTS NESTLE S.A., priority 2017, published 2020)

Test system: LC3 positive punctae in embryo muscles
Assay: LC3 positive punctae count in muscles of transgenic LC3-ZsGreen zebrafish embryos
Format: in vivo
Experimental: Autophagy was measured by counting the number of LC3 positive punctae in embryo muscles, normalized by total area. A zebrafish autophagy reporter has been generated by stable expression of the LC3 protein fused to ZsGreen under the control of a skeletal muscle specific promoter, hereafter LC3-ZsGreen. Embryos from outcrossed transgenic zebrafish have been raised at 28° C. under standard laboratory conditions and have been treated at 48 h post-fertilization in 96 well plates (n=24). After 16 hours of treatment embryos were anesthetized with 0.016% tricaine and imaged with ImageXpress confocal system at 20× magnification (Molecular Devices). After acquisition embryos were further treated with NH4Cl 100 mM for 4 h to block LC3 degradation and imaged again. Z stack images were captured for each embryo and maximal projection images were produced. Number of LC3 punctae have been calculated with MetaXpress software (Moleculare Devices) and normalized by fish area.

CC(C)[C@H](N)C(=O)O [Valine, valine]
Number of LC3 positive punctae in embryo muscles, normalized by total area (500 μM in fish water, 16 hours of treatment from 48 h post-fertilization): induced an increase of LC3 positive punctae
Autophagic flux (LC3 punctae in presence of the lysosomal inhibitor NH4Cl) (500 μM, then NH4Cl 100 mM for 4 h): increase of autophagic flux
